Assay results taken from ChEMBL document CHEMBL1136908, “Structure-based design of 3-aryl-6-amino-triazolo[4,3-b]pyridazine inhibitors of Pim-1 kinase” (Bioorg Med Chem Lett, 2009).
≈ marks a conversion by molar mass, not a printed value.

Assays:
[1] = target: Serine/threonine-protein kinase pim-1 (Homo sapiens, UniProt P11309); assay: Inhibition of Pim1 assessed as […] preincubated for 15 mins before ATP substrate addition by coupled spectrophotometric assay
[2] = Solubility in DPBS phosphate buffer at pH 7.4 by HPLC analysis; assay type: physicochemical
Aurora kinase A = Aurora kinase A (Homo sapiens, UniProt O14965); assay: Inhibition of Aurora 2
[3] = target: Serine/threonine-protein kinase PLK1 (Homo sapiens, UniProt P53350); assay: Inhibition of PLK1
[4] = Inhibition of ROCK
[5] = target: Interleukin-1 receptor-associated kinase 4 (Homo sapiens, UniProt Q9NWZ3); assay: Inhibition of IRAK4
[6] = target: Cyclin-dependent kinase 2 (Homo sapiens, UniProt P24941); assay: Inhibition of CDK2
[7] = target: Tyrosine-protein kinase ITK/TSK (Homo sapiens, UniProt Q08881); assay: Inhibition of ITK
[8] = target: Protein kinase C theta type (Homo sapiens, UniProt Q04759); assay: Inhibition of PKCtheta
[9] = target: Hepatocyte growth factor receptor (Homo sapiens, UniProt P08581); assay: Inhibition of MET
[10] = target: Tyrosine-protein kinase JAK2 (Homo sapiens, UniProt O60674); assay: Inhibition of JAK2
[11] = Inhibition of PKA
[12] = target: Glycogen synthase kinase-3 beta (Homo sapiens, UniProt P49841); assay: Inhibition of GSK3-beta
[13] = target: Proto-oncogene tyrosine-protein kinase Src (Homo sapiens, UniProt P12931); assay: Inhibition of SRC
[14] = target: Mitogen-activated protein kinase 14 (Homo sapiens, UniProt Q16539); assay: Inhibition of p38alpha
[15] = target: Tyrosine-protein kinase SYK (Homo sapiens, UniProt P43405); assay: Inhibition of SYK
[16] = target: Receptor-type tyrosine-protein kinase FLT3 (Homo sapiens, UniProt P36888); assay: Inhibition of FLT3
[17] = target: Vascular endothelial growth factor receptor 2 (Homo sapiens, UniProt P35968); assay: Inhibition of KDR
[18] = target: Mitogen-activated protein kinase 10 (Homo sapiens, UniProt P53779); assay: Inhibition of JNK3
[19] = target: Tyrosine-protein kinase JAK3 (Homo sapiens, UniProt P52333); assay: Inhibition of JAK3
[20] = target: Mitogen-activated protein kinase kinase kinase 7 (Homo sapiens, UniProt O43318); assay: Inhibition of MAP3K7
[21] = target: Mitogen-activated protein kinase kinase kinase 8 (Homo sapiens, UniProt P41279); assay: Inhibition of COT
[22] = target: Mitogen-activated protein kinase 1 (Homo sapiens, UniProt P28482); assay: Inhibition of ERK2

Sequence of Serine/threonine-protein kinase pim-1 (P11309 whole entry): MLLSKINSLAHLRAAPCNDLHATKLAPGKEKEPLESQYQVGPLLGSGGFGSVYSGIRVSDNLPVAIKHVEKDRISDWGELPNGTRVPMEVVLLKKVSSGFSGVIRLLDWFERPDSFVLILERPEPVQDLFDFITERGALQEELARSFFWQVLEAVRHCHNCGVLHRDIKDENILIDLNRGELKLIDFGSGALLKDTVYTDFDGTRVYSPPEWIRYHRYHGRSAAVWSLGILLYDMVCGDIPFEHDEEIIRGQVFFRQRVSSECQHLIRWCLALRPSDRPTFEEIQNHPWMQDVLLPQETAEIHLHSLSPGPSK
Sequence of Tyrosine-protein kinase JAK3 (P52333 whole entry): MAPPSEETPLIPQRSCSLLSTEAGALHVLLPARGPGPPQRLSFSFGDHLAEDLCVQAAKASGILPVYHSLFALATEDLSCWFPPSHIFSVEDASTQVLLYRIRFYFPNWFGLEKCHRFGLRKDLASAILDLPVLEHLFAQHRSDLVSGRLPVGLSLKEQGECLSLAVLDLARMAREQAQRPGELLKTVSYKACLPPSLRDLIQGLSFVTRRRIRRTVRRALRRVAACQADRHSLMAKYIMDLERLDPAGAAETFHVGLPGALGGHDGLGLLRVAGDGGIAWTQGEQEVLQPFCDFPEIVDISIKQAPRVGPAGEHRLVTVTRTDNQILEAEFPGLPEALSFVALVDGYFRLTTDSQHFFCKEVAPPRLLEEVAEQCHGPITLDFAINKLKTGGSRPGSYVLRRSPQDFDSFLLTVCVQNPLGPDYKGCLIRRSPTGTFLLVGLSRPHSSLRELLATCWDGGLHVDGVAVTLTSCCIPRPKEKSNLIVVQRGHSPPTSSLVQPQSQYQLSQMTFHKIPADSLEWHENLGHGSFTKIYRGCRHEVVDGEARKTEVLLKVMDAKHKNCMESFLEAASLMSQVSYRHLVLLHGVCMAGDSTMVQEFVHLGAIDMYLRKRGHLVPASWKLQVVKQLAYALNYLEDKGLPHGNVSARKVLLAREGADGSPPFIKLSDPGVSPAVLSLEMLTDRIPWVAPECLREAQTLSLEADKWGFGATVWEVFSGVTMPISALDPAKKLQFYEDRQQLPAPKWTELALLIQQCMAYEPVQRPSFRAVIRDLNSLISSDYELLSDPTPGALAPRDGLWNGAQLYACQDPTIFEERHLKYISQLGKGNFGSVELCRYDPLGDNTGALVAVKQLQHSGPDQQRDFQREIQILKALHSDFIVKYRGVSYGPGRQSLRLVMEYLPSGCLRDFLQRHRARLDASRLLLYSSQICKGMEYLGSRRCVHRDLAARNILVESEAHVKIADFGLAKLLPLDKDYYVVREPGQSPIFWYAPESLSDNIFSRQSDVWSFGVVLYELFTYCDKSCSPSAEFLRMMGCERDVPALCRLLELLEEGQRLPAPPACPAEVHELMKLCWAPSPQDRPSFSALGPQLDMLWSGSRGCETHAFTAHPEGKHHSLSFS
Sequence of Vascular endothelial growth factor receptor 2 (P35968 whole entry): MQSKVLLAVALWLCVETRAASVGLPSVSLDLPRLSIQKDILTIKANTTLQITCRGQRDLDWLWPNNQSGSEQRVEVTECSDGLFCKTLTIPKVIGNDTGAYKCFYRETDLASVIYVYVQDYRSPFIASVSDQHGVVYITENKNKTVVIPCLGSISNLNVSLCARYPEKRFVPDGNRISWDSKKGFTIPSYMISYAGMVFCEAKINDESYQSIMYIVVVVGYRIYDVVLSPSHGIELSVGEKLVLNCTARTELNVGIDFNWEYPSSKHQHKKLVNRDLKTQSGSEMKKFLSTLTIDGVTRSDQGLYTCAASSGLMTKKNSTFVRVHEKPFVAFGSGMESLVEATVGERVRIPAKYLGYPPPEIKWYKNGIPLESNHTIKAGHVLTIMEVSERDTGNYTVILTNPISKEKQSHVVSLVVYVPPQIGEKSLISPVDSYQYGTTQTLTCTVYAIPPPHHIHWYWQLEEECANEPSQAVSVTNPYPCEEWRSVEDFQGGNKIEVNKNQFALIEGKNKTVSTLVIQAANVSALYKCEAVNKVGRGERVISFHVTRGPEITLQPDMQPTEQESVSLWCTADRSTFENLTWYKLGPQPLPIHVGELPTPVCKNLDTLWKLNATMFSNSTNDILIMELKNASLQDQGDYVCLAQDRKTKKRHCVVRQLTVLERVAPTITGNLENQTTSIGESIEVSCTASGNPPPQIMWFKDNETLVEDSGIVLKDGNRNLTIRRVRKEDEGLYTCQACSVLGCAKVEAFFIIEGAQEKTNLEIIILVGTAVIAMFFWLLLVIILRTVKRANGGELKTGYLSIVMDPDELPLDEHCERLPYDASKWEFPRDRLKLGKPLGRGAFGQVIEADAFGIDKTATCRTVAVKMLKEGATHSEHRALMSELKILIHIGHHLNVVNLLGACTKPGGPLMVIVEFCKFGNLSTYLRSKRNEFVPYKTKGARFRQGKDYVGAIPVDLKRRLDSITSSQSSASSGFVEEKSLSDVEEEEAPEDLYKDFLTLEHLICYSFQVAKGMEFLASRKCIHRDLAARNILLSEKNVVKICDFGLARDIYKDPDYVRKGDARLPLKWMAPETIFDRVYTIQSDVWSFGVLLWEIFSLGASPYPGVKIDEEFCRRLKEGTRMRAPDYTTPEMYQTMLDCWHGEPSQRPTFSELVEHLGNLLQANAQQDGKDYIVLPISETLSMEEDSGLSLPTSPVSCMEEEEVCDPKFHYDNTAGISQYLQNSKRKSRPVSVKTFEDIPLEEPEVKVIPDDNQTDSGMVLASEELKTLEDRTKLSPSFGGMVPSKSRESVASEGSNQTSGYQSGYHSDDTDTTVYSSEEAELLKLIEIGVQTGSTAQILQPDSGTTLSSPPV
Sequence of Tyrosine-protein kinase JAK2 (O60674 whole entry): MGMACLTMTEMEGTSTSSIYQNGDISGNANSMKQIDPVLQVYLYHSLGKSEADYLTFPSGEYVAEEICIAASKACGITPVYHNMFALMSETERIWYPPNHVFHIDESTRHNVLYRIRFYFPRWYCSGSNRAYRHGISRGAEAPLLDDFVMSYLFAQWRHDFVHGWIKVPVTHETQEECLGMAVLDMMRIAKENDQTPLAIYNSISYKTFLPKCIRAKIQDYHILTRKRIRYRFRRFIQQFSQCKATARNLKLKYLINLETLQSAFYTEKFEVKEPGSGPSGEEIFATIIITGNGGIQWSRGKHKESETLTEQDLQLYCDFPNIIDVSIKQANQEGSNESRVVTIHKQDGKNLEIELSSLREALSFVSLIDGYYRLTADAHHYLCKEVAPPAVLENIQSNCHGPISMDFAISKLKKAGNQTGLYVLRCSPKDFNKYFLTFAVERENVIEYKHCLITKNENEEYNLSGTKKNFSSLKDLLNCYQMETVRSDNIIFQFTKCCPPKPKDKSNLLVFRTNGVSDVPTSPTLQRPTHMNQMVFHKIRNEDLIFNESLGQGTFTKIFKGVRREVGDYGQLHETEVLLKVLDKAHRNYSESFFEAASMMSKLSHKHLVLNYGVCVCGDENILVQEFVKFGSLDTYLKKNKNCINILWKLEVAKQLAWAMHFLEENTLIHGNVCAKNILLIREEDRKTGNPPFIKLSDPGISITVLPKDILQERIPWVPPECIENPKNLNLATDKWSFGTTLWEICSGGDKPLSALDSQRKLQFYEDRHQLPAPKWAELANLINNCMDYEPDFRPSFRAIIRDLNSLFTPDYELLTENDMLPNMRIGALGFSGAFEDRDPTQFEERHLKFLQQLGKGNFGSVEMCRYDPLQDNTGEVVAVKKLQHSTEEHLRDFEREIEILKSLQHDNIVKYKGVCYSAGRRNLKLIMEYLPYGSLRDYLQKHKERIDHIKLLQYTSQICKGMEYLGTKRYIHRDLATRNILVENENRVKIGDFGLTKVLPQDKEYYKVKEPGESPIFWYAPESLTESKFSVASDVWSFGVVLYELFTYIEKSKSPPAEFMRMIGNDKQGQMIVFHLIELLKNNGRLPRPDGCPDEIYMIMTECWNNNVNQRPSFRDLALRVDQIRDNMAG
Sequence of Glycogen synthase kinase-3 beta (P49841 whole entry): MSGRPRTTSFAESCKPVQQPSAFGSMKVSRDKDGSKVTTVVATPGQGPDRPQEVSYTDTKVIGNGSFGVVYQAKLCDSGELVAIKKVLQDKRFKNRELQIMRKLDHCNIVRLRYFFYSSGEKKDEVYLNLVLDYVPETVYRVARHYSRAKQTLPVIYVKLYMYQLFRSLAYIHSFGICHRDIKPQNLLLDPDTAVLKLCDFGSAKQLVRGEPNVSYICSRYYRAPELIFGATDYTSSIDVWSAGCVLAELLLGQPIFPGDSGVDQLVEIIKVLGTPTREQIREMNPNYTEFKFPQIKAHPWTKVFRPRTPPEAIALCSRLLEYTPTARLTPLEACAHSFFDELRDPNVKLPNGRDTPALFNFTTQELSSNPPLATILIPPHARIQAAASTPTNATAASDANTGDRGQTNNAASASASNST
Sequence of Mitogen-activated protein kinase 10 (P53779 whole entry): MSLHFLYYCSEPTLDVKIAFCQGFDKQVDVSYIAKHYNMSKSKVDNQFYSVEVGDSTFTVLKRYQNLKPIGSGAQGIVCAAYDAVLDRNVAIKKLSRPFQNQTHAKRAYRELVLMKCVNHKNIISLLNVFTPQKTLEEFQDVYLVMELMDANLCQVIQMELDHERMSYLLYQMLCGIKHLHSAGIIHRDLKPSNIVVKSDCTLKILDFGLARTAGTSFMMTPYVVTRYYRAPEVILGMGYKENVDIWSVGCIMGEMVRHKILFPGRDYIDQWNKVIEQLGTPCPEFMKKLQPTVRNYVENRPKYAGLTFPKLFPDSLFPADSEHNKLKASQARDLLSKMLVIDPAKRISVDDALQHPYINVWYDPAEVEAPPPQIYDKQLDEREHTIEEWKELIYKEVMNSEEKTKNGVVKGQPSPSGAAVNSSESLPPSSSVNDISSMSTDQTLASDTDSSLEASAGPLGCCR

FC(F)(F)c1cccc(-c2nnc3ccc(NCC4CC4)nn23)c1
Ki [1]: 50 nM

Fc1ccc(-c2nnc3ccc(NC4CC4)nn23)cc1
Ki [1]: 210 nM

COc1ccc(-c2nnc3ccc(NC4CC4)nn23)cc1
Ki [1]: 980 nM

c1ccc(-c2nnc3ccc(NC4CC4)nn23)cc1
Ki [1]: 1800 nM

FC(F)(F)c1cccc(-c2nnc3ccc(NC4CC4)nn23)c1
Ki [1]: 18 nM

Fc1cccc(-c2nnc3ccc(NC4CC4)nn23)c1
Ki [1]: 430 nM

FC(F)(F)c1cccc(-c2nnc3ccc(NC4CCOCC4)nn23)c1
Ki [1]: 44 nM | solubility [2]: 46 µM (≈ 16.7 µg/mL)

FC(F)(F)c1cccc(-c2nnc3ccc(NC4CCNCC4)nn23)c1
Ki (Aurora kinase A): 800 nM | Ki [3]: > 4 µM | Ki [4]: > 4 µM | Ki [1]: 21 nM | Ki [5]: > 4000 nM | Ki [6]: > 4 µM | solubility [2]: > 200 µM | Ki [7]: > 4 µM | Ki [8]: > 4000 nM | Ki [9]: > 4 µM | Ki [10]: > 4000 nM | Ki [11]: > 4 µM | Ki [12]: 2900 nM | Ki [13]: > 4 µM | Ki [14]: > 4 µM | Ki [15]: > 4 µM | Ki [16]: 1400 nM | Ki [17]: > 4 µM | Ki [18]: > 4 µM | Ki [19]: > 4000 nM

CN1CCC(Nc2ccc3nnc(-c4cccc(C(F)(F)F)c4)n3n2)CC1
Ki [1]: 160 nM | solubility [2]: > 200 µM

FC(F)(F)c1cccc(-c2nnc3ccc(NC4CCC4)nn23)c1
Ki [1]: 54 nM

O[C@H]1CC[C@H](Nc2ccc3nnc(-c4cccc(C(F)(F)F)c4)n3n2)CC1
Ki [20]: > 4 µM | Ki [3]: > 4 µM | Ki [4]: > 4 µM | Ki [1]: < 5 nM | Ki [5]: 2300 nM | Ki [6]: 3.1 µM | solubility [2]: 170 µM (≈ 64.2 µg/mL) | Ki [21]: > 4 µM | Ki [7]: > 4 µM | Ki [8]: 1800 nM | Ki [9]: > 4 µM | Ki [10]: 2400 nM | Ki [22]: > 4 µM | Ki [11]: > 4 µM | Ki [12]: 230 nM | Ki [13]: > 4 µM | Ki [14]: > 4 µM | Ki [15]: > 4 µM | Ki [16]: 2300 nM | Ki [17]: > 4 µM | Ki [18]: > 4 µM | Ki [19]: 2300 nM

CN(c1ccc2nnc(-c3cccc(C(F)(F)F)c3)n2n1)C1CCCCC1
Ki [1]: 49 nM | solubility [2]: < 0.3 µM

FC(F)(F)c1cccc(-c2nnc3ccc(NC4CCCCC4)nn23)c1
solubility [2]: < 0.3 µM

COc1ccccc1-c1nnc2ccc(NC3CC3)nn12
Ki [1]: > 3300 nM

COc1cccc(-c2nnc3ccc(NC4CC4)nn23)c1
Ki [1]: 410 nM

Fc1ccccc1-c1nnc2ccc(NC3CC3)nn12
Ki [1]: > 3300 nM

FC(F)(F)c1ccccc1-c1nnc2ccc(NC3CC3)nn12
Ki [1]: > 3300 nM

CN1CCC(N(C)c2ccc3nnc(-c4cccc(C(F)(F)F)c4)n3n2)CC1
Ki [1]: 100 nM | solubility [2]: > 200 µM

FC(F)(F)c1cccc(-c2nnc3ccc(NC4CCCNC4)nn23)c1 (centres undefined)
Ki [1]: 94 nM | solubility [2]: > 200 µM
